Experimental data published in article PMC9406419, “OATD-02 Validates the Benefits of Pharmacological Inhibition of Arginase 1 and 2 in Cancer” (Cancers, 2022).

System: CT26 tumours
Test: Syngeneic CT26 model, combination with epacadostat and anti-PD-L1 antibody
Assay type: in vivo, mouse
Details: suboptimal doses: OATD-02 50 mg/kg PO BID; epacadostat 30 mg/kg PO BID; anti-PD-L1 2.5 mg/kg IP days 8, 10, 12, 14, 16
Protocol: CT26 and K562 in vivo experiments were conducted at Molecure SA. All experimental procedures were approved by the 1st Local Ethics Committee in Warsaw (Poland). For the syngeneic CT26 model, 7–8-week old BALB/c females (n = 9–18 per group, BALB/cAnNCrl, Charles River Laboratories) were injected subcutaneously in the right flank with 5 × 10^5 CT26 cells. […] Anti-PD-L1 antibody (InVivoPlus anti-mouse PD-L1, clone 10F.9G2, BioXCell, lot 615416D1) was injected intraperitoneally at 2.5 mg/kg on days: 8, 10, 12, 14 and 16 post tumour cells inoculation. Control groups received vehicle (saline) or isotype antibody (InVivoPlus rat IgG2b, anti-KLH, BioXCell, lot 629816D1). For the xenograft K562 model, 7–8 week-old athymic nude mice (n = 8–11 per group, Crl:NU(NCr)-Foxn1^nu, Charles River Laboratories) or NK cell-deficient Fox Chase SCID Beige mice (n = 10–12 per group, CB17.Cg-Prkdc^scidLyst^bg-J/Crl, Charles River Laboratories) were injected subcutaneously in the right flank with 1 × 10^7 K562 cells. […] Tumour volume measured by a digital calliper (width × length × depth × π/6) was recorded three times per week. Animals were euthanized when tumours were necrotized or volume exceeded 2000 mm^3. Renca in vivo efficacy study was performed at Crown Biosciences Inc. (Taicang, China). […] Tumour volumes (length × width^2 × 0.5) were measured twice per week. […]

## NS(=O)(=O)NCCNc1nonc1C(=NO)Nc1ccc(F)c(Br)c1 [epacadostat, reference compound]
  TGI, CT26 tumor growth inhibition - day 24: 41%
